We go through 13 compounds from patent US11739098B2 (BRISTOL-MYERS SQUIBB COMPANY, priority 2017, dated 2023).

Molecules are shown by their SMILES.

Type in all cases: cell-based
One experiment has as its target T1, human TLR9 (Homo sapiens, UniProt Q9NR96).
T1 construct: host or cells: HEK-Blue cells (HEK293-derived reporter line)
T1 sequence (Q9NR96 26-1032): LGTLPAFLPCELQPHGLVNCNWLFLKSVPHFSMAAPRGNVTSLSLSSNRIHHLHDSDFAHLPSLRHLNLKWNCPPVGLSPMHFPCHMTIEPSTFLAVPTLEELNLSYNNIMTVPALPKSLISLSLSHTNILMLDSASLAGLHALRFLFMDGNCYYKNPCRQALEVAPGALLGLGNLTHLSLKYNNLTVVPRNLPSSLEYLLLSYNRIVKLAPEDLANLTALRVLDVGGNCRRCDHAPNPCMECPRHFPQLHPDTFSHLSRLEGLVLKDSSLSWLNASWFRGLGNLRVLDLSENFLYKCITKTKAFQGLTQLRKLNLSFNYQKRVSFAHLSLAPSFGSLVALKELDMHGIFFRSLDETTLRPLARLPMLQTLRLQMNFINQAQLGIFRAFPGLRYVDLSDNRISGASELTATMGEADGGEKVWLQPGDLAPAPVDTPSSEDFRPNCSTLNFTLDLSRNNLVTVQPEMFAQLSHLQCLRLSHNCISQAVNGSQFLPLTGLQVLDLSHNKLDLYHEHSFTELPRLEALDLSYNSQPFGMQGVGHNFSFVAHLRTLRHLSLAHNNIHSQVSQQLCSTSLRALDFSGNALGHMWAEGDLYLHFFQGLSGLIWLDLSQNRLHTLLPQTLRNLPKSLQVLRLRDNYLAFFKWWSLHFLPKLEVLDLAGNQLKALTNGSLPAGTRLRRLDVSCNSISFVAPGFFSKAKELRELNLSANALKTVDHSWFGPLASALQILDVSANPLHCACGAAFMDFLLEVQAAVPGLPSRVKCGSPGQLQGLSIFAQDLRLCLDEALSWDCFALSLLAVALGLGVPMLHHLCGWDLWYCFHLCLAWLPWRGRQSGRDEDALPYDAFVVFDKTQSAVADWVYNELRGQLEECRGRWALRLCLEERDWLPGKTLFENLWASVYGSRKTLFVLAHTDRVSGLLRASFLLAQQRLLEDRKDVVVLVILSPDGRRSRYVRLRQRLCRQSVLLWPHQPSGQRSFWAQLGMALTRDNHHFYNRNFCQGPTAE
Kind of experiment: TLR9 inhibition reporter assay (HEK-Blue cells, SEAP reporter, ODN2006 stimulation). As to conditions: HEK-Blue cells overexpressing human TLR9, SEAP reporter, ODN2006 5 nM. The procedure, abridged: (§1)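 Agonists (final): TLR7 gardiquimod 7.5 μM; TLR8 R848 15.9 μM; TLR9 ODN2006 5 nM. HEK-Blue reporter cells, 30 min RT compound pre-incubation, 0.05 nM–50 μM dose range, 22 h at 37 °C, colorimetric SEAP detection medium. % inhibition relative to agonist+DMSO and known-inhibitor wells.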

The next experiment addresses T2, human TLR8 (Homo sapiens, UniProt Q9NR97).
T2 construct: host or cells: HEK-Blue cells (HEK293-derived reporter line)
T2 sequence (Q9NR97 27-1041): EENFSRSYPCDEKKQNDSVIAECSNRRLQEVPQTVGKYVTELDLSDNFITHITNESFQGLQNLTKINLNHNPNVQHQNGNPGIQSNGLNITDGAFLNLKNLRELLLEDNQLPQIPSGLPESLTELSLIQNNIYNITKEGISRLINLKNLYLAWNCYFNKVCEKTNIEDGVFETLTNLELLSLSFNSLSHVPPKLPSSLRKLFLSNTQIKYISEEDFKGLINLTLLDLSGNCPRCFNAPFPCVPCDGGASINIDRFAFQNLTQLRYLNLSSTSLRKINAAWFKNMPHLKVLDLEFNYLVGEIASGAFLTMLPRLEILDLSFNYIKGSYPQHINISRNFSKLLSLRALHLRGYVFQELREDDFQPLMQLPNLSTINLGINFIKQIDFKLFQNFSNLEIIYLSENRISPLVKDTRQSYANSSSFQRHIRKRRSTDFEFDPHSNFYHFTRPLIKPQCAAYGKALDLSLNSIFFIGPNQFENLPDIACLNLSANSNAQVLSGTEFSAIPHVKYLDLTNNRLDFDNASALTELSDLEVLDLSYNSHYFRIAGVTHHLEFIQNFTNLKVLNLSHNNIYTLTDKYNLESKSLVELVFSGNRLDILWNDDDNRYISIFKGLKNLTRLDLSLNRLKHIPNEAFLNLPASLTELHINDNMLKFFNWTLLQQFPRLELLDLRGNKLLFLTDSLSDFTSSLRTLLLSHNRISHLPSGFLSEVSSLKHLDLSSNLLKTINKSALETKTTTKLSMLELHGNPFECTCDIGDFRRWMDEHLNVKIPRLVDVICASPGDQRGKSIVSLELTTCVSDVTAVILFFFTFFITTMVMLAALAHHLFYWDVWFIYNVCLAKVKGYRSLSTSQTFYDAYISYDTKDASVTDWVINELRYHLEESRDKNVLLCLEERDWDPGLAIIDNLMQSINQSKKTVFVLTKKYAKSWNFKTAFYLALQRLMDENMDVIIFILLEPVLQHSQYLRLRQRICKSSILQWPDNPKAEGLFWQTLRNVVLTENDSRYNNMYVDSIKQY
Kind of experiment: TLR8 inhibition reporter assay (HEK-Blue cells, SEAP reporter, R848 stimulation). The following applies: HEK-Blue cells overexpressing human TLR8, SEAP reporter, R848 15.9 μM. The procedure, abridged:
as §1
(A reporter such as luciferase makes a cellular process visible.)

A further experiment addresses T3, human TLR7 (Homo sapiens, UniProt Q9NYK1).
T3 construct: host or cells: HEK-Blue cells (HEK293-derived reporter line)
T3 sequence (Q9NYK1 27-1049): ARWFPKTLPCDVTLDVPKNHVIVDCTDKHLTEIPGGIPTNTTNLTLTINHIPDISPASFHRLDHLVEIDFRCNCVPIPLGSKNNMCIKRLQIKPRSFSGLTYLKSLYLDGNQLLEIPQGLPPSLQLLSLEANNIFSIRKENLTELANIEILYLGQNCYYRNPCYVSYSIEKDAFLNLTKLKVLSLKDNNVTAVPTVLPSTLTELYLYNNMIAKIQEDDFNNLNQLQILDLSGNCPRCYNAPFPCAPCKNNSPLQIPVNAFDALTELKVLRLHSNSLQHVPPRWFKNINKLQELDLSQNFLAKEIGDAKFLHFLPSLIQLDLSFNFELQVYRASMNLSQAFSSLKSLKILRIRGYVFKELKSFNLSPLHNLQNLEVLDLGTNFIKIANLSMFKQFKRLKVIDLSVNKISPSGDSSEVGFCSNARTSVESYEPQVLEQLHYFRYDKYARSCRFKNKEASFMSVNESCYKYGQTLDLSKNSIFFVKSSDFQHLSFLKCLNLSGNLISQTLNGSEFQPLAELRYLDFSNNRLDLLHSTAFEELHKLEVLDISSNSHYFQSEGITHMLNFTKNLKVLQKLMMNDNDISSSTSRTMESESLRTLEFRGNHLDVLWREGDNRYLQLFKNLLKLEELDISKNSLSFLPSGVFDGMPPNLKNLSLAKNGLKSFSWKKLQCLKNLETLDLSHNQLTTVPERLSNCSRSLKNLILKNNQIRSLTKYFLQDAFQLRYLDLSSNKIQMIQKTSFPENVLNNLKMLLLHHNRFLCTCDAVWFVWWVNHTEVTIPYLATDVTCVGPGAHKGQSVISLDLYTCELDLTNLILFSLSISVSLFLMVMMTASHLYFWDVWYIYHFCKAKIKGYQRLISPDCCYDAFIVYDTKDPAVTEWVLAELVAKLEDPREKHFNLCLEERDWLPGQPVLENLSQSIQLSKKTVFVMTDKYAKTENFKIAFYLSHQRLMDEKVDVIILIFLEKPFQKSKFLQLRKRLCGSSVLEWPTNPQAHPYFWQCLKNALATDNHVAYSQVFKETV
Kind of experiment: TLR7 inhibition reporter assay (HEK-Blue cells, SEAP reporter, gardiquimod stimulation). The following applies: HEK-Blue cells overexpressing human TLR7, SEAP reporter, gardiquimod 7.5 μM. The procedure, abridged:
as §1

As to `COC(=O)c1c(-c2ccnc3[nH]ncc23)[nH]c2ccc(C3CCNCC3)cc12` [Example 174, methyl 5-(piperidin-4-yl)-2-(1H-pyrazolo[3,4-b]pyridin-4-yl)-1H-indole-3-carboxylate], the IC50 (in general, the point on the concentration scale where inhibition reaches its midpoint) on human TLR9 is 1000 to 50000 nM; at human TLR8 it was 1000 to 50000 nM; at human TLR7, over 50000 nM.
`CC(C)c1c(-c2coc3cccnc23)[nH]c2ccc(C3CCNCC3)cc12` [Example 20, 3-(3-isopropyl-5-(piperidin-4-yl)-1H-indol-2-yl)furo[3,2-b] pyridine]: the 50% inhibitory concentration (IC50) at human TLR9 is 1000 to 50000 nM; against human TLR8 it was over 3130 nM; at human TLR7, over 3130 nM.
`Cc1nnn2ccc(-c3[nH]c4ccc(C5CCN(CCS(C)(=O)=O)CC5)cc4c3C(C)C)cc12` [Example 793, 5-(3-isopropyl-5-(1-(2-(methylsulfonyl)ethyl)piperidin-4-yl)-1H-indol-2-yl)-3-methyl-[1,2,3]triazolo[1,5-a]pyridine]: the IC50 against human TLR9 was 1000 to 50000 nM; at human TLR8 it was under 100 nM; against human TLR7 it was under 100 nM.
Consider `CC(C)c1c(-c2ccnc3[nH]ncc23)[nH]c2ccc(C3CCNCC3)cc12` [Example 230, 4-(3-isopropyl-5-(piperidin-4-yl)-1H-indol-2-yl)-1H-pyrazolo[3,4-b]pyridine], for which the figures for the IC50 at human TLR9, on human TLR8 and against human TLR7 were 100 to 1000 nM, under 100 nM and under 100 nM, respectively.
Regarding `CNC(=O)CN1CCC(c2ccc3[nH]c(-c4cc(C(C)(C)O)c5nccn5c4)c(C(C)C)c3c2)CC1` [Example 342, 2-(4-(2-(8-(2-hydroxypropan-2-yl)imidazo[1,2-a]pyridin-6-yl)-3-isopropyl-1H-indol-5-yl)piperidin-1-yl)-N-methylacetamide], the IC50 at human TLR9 was 100 to 1000 nM; against human TLR8, 100 to 1000 nM; against human TLR7, under 100 nM.
As to `CC(C)c1c(-c2cnc3ncnn3c2)[nH]c2ccc(C3CCN(C(=O)CN(C)C)CC3)cc12` [Example 554, 1-(4-(2-([1,2,4]triazolo[1,5-a]pyrimidin-6-yl)-3-isopropyl-1H-indol-5-yl)piperidin-1-yl)-2-(dimethylamino)ethan-1-one], the IC50 is 1000 to 50000 nM at human TLR9, 100 to 1000 nM against human TLR8 and under 100 nM against human TLR7.
For the compound `CNC(=O)CN1CCC(c2ccc3[nH]c(-c4cnc5ncnn5c4)c(C(C)C)c3c2)CC1` [Example 423, 2-(4-(2-([1,2,4]triazolo[1,5-a]pyrimidin-6-yl)-3-isopropyl-1H-indol-5-yl)piperidin-1-yl)-N-methylacetamide], the values for the IC50 at human TLR9, against human TLR8 and against human TLR7 were 1000 to 50000 nM, under 100 nM and under 100 nM, respectively.
For the compound `Cc1cn2cc(-c3[nH]c4ccc(C5CCN(Cc6cnn(C)c6)CC5)cc4c3C(C)C)cc(C(F)(F)F)c2n1` [Example 934, 6-(3-isopropyl-5-(1-((1-methyl-1H-pyrazol-4-yl)methyl)piperidin-4-yl)-1H-indol-2-yl)-2-methyl-8-(trifluoromethyl)imidazo[1,2-a]pyridine], the IC50 against human TLR9 was 1000 to 50000 nM; on human TLR8 it was 100 to 1000 nM; on human TLR7, under 100 nM.
In the case of `CC(=O)N1CCC(C(=O)N2CCC(c3ccc4[nH]c(-c5ccnc6[nH]ncc56)c(C(C)C)c4c3)CC2)CC1` [Example 646, 1-(4-(4-(3-isopropyl-2-(1H-pyrazolo[3,4-b]pyridin-4-yl)-1H-indol-5-yl)piperidine-1-carbonyl)piperidin-1-yl)ethan-1-one], the IC50 on human TLR9 was 1000 to 50000 nM; against human TLR8 it was under 100 nM; against human TLR7 it was 100 to 1000 nM.
`Cc1c(-c2ccnc3cc[nH]c23)[nH]c2ccc(C3CCNCC3)cc12` [Example 23, 7-(3-methyl-5-(piperidin-4-yl)-1H-indol-2-yl)-1H-pyrrolo[3,2-b]pyridine]: the IC50 at human TLR9 is 100 to 1000 nM; against human TLR8 it was under 100 nM; on human TLR7 it was under 100 nM.
For `CCc1c(-c2cc3cnn(C)c3cn2)[nH]c2ccc(C3CCNCC3)cc12` [Example 97, 5-(3-ethyl-5-(piperidin-4-yl)-1H-indol-2-yl)-1-methyl-1H-pyrazolo[3,4-c]pyridine], the 50% inhibitory concentration (IC50) on human TLR9 lay in the range of 1000 to 50000 nM; against human TLR8, 100 to 1000 nM; against human TLR7, 1000 to 50000 nM.
In the case of `CC(C)c1c(-c2ccc(C#N)c3ncccc23)[nH]c2ccc(C3CCN(CCS(C)(=O)=O)CC3)cc12` [Example 796, 5-(3-isopropyl-5-(1-(2-(methylsulfonyl)ethyl)piperidin-4-yl)-1H-indol-2-yl)quinoline-8-carbonitrile], the IC50 against human TLR9 is 1000 to 50000 nM; against human TLR8, under 100 nM; against human TLR7, under 100 nM.
Turning to `CNCCN1CCC(c2ccc3[nH]c(-c4ccc5ncnn5n4)c(C)c3c2)CC1` [Example 651, 2-(4-(2-([1,2,4]triazolo[1,5-b]pyridazin-6-yl)-3-methyl-1H-indol-5-yl)piperidin-1-yl)-N-methylethan-1-amine], the IC50 on human TLR9, against human TLR8 and on human TLR7 was under 100 nM in each case.
